Changes are numbered by the printed parent chain. Where a name gives a salt, the structure may show the parent alone.
Experiments:
[1] = Blood-brain barrier penetration in mice, oral 30 mg/kg FBE; assay type: in vivo; conditions: for Kp / Cmax: mouse, oral, 30 mg/kg; for Kp: brain and plasma, read-out: Barin/Plasma Cmax (%); for Cmax: plasma
Text: The ability of a drug to penetrate the blood-brain barrier can be an important function. Without the capability of penetrating into the brain, the drug will not likely have a therapeutic effect in tissues in the brain.

[2] = Blood-brain barrier penetration in rats, single 100 mg/kg FBE p.o.; assay type: in vivo; conditions: rat, brain and plasma, po, exposure in nM-hr, read-out: total brain exposure as % of plasma exposure
N370S mice = assay: Example 6: daily oral dosing of IFG tartrate in N370S mice; assay type: in vivo
Protocol: (§1) The purpose of this study was to first confirm that the GlcSph substrate was elevated in N370S and L444P mutant mouse models.
(§2) Both compounds were administered daily via an oral route.

[3] = Brain tissue washout / efflux half-life; assay type: in vivo
Text: To evaluate the potential therapeutic effect of a chaperone, the washout period can be examined to determine the length of time required to washout the inhibitor. Otherwise, enzyme that is successfully trafficked to the lysosome may not have optimal functionality because the chaperone, which also functions as a competitive inhibitor, can continue to compete with the substrate for the enzyme active site.

[4] = Bioavailability (plasma as percent oral dose); assay type: in vivo
GCase = biological target: T1, GCase (Mus musculus, UniProt P17439); assay: ED50 in brain; assay type: in vivo
T1 construct: from tissue; host or cells: brain
T1 sequence (P17439 20-515): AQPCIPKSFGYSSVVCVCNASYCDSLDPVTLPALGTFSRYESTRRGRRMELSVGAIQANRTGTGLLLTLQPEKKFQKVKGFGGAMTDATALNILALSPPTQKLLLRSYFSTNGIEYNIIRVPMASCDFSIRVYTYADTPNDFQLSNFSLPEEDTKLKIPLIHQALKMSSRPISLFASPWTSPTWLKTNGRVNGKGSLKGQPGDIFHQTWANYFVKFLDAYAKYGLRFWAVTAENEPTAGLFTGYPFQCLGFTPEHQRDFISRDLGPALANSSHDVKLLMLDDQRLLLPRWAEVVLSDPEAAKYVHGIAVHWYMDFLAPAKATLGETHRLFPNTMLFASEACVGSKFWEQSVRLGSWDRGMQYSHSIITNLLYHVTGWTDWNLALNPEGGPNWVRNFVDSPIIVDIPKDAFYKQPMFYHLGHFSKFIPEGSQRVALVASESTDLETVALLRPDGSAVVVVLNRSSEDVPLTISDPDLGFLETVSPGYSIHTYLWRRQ

pKa = assay type: physicochemical
L444P mice [5] = assay: Example 6: daily oral dosing of Compound 3 in L444P mice; assay type: in vivo
Protocol: as §1, §2

L444P mice [6] = assay: Example 7: daily dosing of Compound 3 in L444P mice over four weeks, fixed and ascending doses in drinking water; assay type: in vivo
Protocol: Both fixed and ascending dosing schemes were used and were administered in drinking water. Four fixed dose groups, 0.01 mg/kg FBE, 0.1 mg/kg FBE, 1 mg/kg FBE, and 10 mg/kg FBE were used. A fifth group, which used an ascending dose, was also included, and it began at 0.01 mg/kg FBE and increased by 10-fold each week, with a dose during the final week of 10 mg/kg FBE.

L444P mice [7] = assay: Example 8: additional dosing regimens of Compound 3 in L444P mice; assay type: in vivo
Protocol: The purpose of this study was to improve dosing choices based on data collected from Example 7. Specific tissues of L444P mice that were measured were the liver, brain, spleen, bone, marrow, and plasma. […] In Example 8, two dosing strategies were used, fixed dose and constant weekly dose. All doses were administered orally in drinking water. Fixed dose mice were given 1 mg/kg FBE either daily, two days a week, or three days a week. Constant weekly dose mice were given a total of 7 mg/kg FBE per week, either three days a week (Monday, Wednesday, Friday), two days a week (Monday, Thursday), or daily. For example, mice receiving 3 doses per week (Monday, Wednesday, Friday) would receive 2.33 mg/kg FBE in each dose, while mice receiving doses twice a week (Monday, Thursday) would receive 3.5 mg/kg FBE per dose.

L444P mice [8] = assay: Comparison of Examples 6-8 in L444P mice; assay type: in vivo
Text: Changes in brain, liver, and spleen GCase activity were compared across the studies of Examples 6-8. In FIGS. 20 and 21, C1 denotes the study from Example 6, C2 denotes the study from Example 7, and C3 denotes the study from Example 8.

[9] = biological target: T2, recombinant human GCase (rhGCase) (Homo sapiens, UniProt P04062); assay: In vitro thermal stability assay of rhGCase (SYPRO Orange fluorescence); assay type: binding; conditions: 100 μM compound, neutral pH; enzyme alone approximately 53° C.
T2 sequence (P04062 40-536): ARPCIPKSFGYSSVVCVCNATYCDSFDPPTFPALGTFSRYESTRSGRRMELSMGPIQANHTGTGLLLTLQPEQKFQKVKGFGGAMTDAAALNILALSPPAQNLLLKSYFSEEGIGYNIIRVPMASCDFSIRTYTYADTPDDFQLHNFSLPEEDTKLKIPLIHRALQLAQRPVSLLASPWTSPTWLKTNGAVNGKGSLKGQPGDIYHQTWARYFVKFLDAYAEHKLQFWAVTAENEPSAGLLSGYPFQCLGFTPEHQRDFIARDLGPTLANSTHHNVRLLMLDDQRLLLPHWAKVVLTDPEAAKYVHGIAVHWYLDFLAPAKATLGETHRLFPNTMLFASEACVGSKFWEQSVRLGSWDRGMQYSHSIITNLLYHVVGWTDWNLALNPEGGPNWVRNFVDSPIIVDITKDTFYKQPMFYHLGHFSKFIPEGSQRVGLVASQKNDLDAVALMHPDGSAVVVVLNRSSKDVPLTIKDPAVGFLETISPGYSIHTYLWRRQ
Text: A dye (SYPRO® Orange) that fluoresces when it binds to hydrophobic regions of enzyme was used to assess stability, because unstable enzyme that loses its native conformation likely exposes internal hydrophobic amino acids, leading to an increase in fluorescence.

rhGCase = biological target: T3, rhGCase (Homo sapiens, UniProt P04062); conditions: rats
T3 sequence (P04062 40-536): T2 sequence (P04062 40-536)

GCase N370S = biological target: T4, GCase N370S (Homo sapiens, UniProt P04062, N409S); assay: cell-based
T4 sequence (P04062 40-536 N409S): T2 sequence (P04062 40-536) with N370S

[10] = mice, oral 30 mg/kg FBE, brain tissue
[11] = all dose groups, Day 1 and Day 30 after 24-hour washout
[12] = ascending 0.01-10 mg/kg FBE dose

OC[C@H]1CNC[C@@H](O)[C@@H]1O [IFG tartrate, isofagomine tartrate]
crossing of the blood-brain barrier ([1]; mice): capable of crossing the blood-brain barrier | peak compound concentration in brain ([1]; mice, oral 30 mg/kg FBE, brain tissue, value in nM): 30 nM | Kp [2]: 0.29 | GlcSph in liver versus control (N370S mice; 100 mg/kg FBE daily oral): reduction in GlcSph substrate | GlcSph in spleen versus control (N370S mice; 100 mg/kg FBE daily oral): significant reduction of GlcSph | reduction in bone GlcSph concentration (N370S mice; bone): 31% | reduction of GlcSph in marrow (N370S mice; marrow): 45%

Cl.O[C@H]1[C@H](O)CNC[C@@H]1C(F)F [Compound 2]
crossing of the blood-brain barrier ([1]; mice): capable of crossing the blood-brain barrier | Brain Cmax at 30 mg/kg [1, 10]: 9.7 µM

OC[C@H]1CNC[C@@H](O)[C@@H]1O [Isofagomine, isofagomine, reference compound]
Brain tissue efflux (half-life) [3]: 2.9 h | half-life [3]: ~3 h | bioavailability [4]: 53% | Brain Cmax at 30 mg/kg [1, 10]: 0.3 µM | Kp [1]: 0.0165 | Cmax [1]: 17.5 µM | ED50 (GCase): 56.4 mg/kg | pKa (pKa): 8.4

O=C(O)/C=C/C(=O)O.O[C@H]1[C@H](O)CNC[C@@H]1C(F)F [Compound 3]
Kp [2]: 0.85 | enhancement of GCase activity in liver (L444P mice [5]; 10 mg/kg FBE daily): 7.6 fold | GlcSph in spleen versus control (L444P mice [5]; 10 mg/kg FBE daily oral): significant reduction of GlcSph | enhancement of GCase activity in brain (L444P mice [5]; 10 mg/kg FBE daily, almost equivalent to wild-type activity): 2.8 fold | GCase activity in brain, liver and spleen versus vehicle (L444P mice [6]; 0.01 mg/kg FBE and 0.1 mg/kg FBE): did not show significant differences | brain GlcSph versus vehicle (L444P mice [6]; 1 mg/kg FBE): increase in GlcSph | liver GlcSph versus vehicle (L444P mice [6]; 1 mg/kg FBE): decrease in GlcSph | spleen GlcSph versus vehicle (L444P mice [6]; 1 mg/kg FBE): decrease in GlcSph | increase in brain GCase activity versus vehicle (L444P mice [6]; 1 mg/kg FBE daily): almost a two-fold increase | increase in liver GCase activity versus vehicle (L444P mice [6]; 1 mg/kg FBE daily): 5 fold | increase in spleen GCase activity versus vehicle (L444P mice [6]; 1 mg/kg FBE daily): two-fold increase | brain GlcCer concentration versus vehicle (L444P mice [6]; 1 mg/kg FBE, after 30 days): No significant difference | plasma GlcCer versus vehicle (L444P mice [6]; [11]): no significant increases or decreases | plasma GlcSph versus vehicle (L444P mice [6]; [11]): no significant increases or decreases | liver GlcCer concentration versus vehicle (L444P mice [6]; all dose groups, after 30 days): No significant differences | brain GlcSph concentration versus vehicle (L444P mice [6]; [12]): increase in substrate concentration | increase in brain GCase activity versus vehicle (L444P mice [6]; [12]): about three-fold | increase in liver GCase activity versus vehicle (L444P mice [6]; [12]): about 8 fold | increase in spleen GCase activity versus vehicle (L444P mice [6]; [12]): about 4 fold | spleen GlcSph concentration versus vehicle (L444P mice [6]; [12]): reduction in concentration | brain GlcCer concentration versus vehicle (L444P mice [6]; ascending dose, after 30 days): increased | brain GCase activity versus vehicle (L444P mice [7]; 1 mg/kg FBE daily dose): increased and was significant | liver GlcSph concentration versus vehicle (L444P mice [7]; 1 mg/kg FBE daily dose): significant reduction | spleen GlcSph concentration versus vehicle (L444P mice [7]; 1 mg/kg FBE daily dose): significant reduction | plasma concentration of GlcCer (L444P mice [7]; across all doses): no significant differences | brain GCase activity (L444P mice [8]; 0-10 mg/kg FBE ascending dose, studies of Examples 6 and 7): increased | brain GCase activity (L444P mice [8]; 1 mg/kg FBE dose, Example 7 and Example 8): increased | liver GCase activity (L444P mice [8]; 1 mg/kg FBE dosing regimens, Example 7 and Example 8): elevated | brain GlcSph level versus vehicle (L444P mice [8]; 10 mg/kg FBE): increased level of GlcSph over the vehicle | brain GlcSph level versus vehicle (L444P mice [8]; ascending dose (0-10 mg/kg FBE)): increased level of GlcSph over the vehicle | GlcSph substrate level change in the spleen (L444P mice [8]; ascending dose (0-10 mg/kg FBE) and 1 mg/kg FBE dose, Examples 6-8): significant | liver GCase activity (L444P mice [8]; ascending dose, Example 6 and Example 7): higher GCase activity

O[C@H]1[C@H](O)CNC[C@@H]1C(F)F [Compound 1]
temperature of peak fluorescence (unfolding) [9]: 65 °C | half-life [3]: ~1.4 h | bioavailability [4]: 106% | Brain Cmax at 30 mg/kg [1, 10]: 9.7 µM | Kp [1]: 0.115 | Cmax [1]: 84.5 µM | ED50 (GCase): 5.2 mg/kg | pKa (pKa): 7.1 | normalized GCase activity in plasma versus rhGCase alone (rhGCase; 3 mg/kg oral gavage 30 minutes before IV rhGCase): sustained a higher normalized GCase activity in plasma longer | rhGCase western blot band versus no chaperone (rhGCase; 3 mg/kg, 5 minute and 10 minute intervals): a more intense protein band | Emax (GCase N370S): 106%

Reference: patent publication US10179128B2, “Regimens for treating and preventing lysosomal disorders and degenerative disorders of the central nervous system” (Amicus Therapeutics, Inc., priority 2015, dated 2019)
